Data set [1] concerns the target T1, Listeriolysin regulatory protein (Listeria monocytogenes serovar 1/2a (strain ATCC BAA-679 / EGD-e)) (UniProt P22262).
T1 sequence (whole entry): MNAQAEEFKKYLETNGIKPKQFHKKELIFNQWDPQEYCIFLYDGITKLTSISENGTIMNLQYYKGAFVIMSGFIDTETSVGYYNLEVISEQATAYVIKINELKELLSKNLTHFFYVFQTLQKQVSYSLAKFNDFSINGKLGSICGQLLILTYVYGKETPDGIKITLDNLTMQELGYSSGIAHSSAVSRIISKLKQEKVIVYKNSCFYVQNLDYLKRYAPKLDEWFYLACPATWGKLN
In words: Inhibition of PrfA in Listeria monocytogenes EGD-e assessed as downregulation of LLO expression at 1 uM by Western blot method. On the technique in general: Immunoblotting shows a protein as a band on a membrane.

For data set [2], the target named is T1, Listeriolysin regulatory protein (Listeria monocytogenes serovar 1/2a (strain ATCC BAA-679 / EGD-e)). In words: Inhibition of PrfA in Listeria monocytogenes EGD-e assessed as downregulation of LLO expression at 10 uM by Western blot method.
The target is the same in data set [3]. In words: Inhibition of PrfA in Listeria monocytogenes EGD-e assessed as downregulation of ActA expression at 10 uM by Western blot method.
Data set [4] addresses T2, Listeriolysin regulatory protein (Listeria monocytogenes serovar 1/2a (strain ATCC BAA-679 / EGD-e), UniProt P22262).
T2 sequence (P22262 whole entry): T1 sequence (whole entry)
As to the kind of experiment: Binding affinity to Listeria monocytogenes 6-His-tagged PrfA expressed in Escherichia coli BL21 (DE3) pLysS assessed as inhibition of protein binding with biotinylated hpt-DNA by SPR method. For orientation: Surface plasmon resonance follows binding to a sensor surface in real time, without labels.

In data set [5] the target is T1, Listeriolysin regulatory protein (Listeria monocytogenes serovar 1/2a (strain ATCC BAA-679 / EGD-e)). In words: Inhibition of PrfA in Listeria monocytogenes EGD-e assessed as downregulation of ActA expression at 1 uM by Western blot method.
Data set [6] shares this target. In words: Binding affinity to GFP expressing Listeria monocytogenes EGD-e PrfA expressed in Escherichia coli assessed as inhibition of bacterial uptake in human Caco2 cells at 20 uM incubated for 4 hrs by flow cytometric method relative to (R)-8-cyclopropyl-7-(naphthalen-1-ylmethyl)-5-oxo-3,5-dihydro-2H-thiazolo[3,2-a]pyridine-3-carboxylic acid. In general terms: In flow cytometry, cells or beads pass a laser one at a time.

Data set [7] shares this target. In words: Binding affinity to Listeria monocytogenes 6-His-tagged PrfA expressed in Escherichia coli BL21 (DE3) pLysS by ITC method.
For data set [8], the system named is Listeria monocytogenes. As to the kind of experiment: Effect on growth of Listeria monocytogenes EGD-e at 100 uM after 7 hrs. In kind it is organism-based. Particulars: in vivo.
The species named for the next data set is Gallus gallus. As to the kind of experiment: Toxicity in chicken embryo at 4 to 8 uM measured over 72 hrs. In kind it is organism-based. Particulars: in vivo.
Data set [9] relates to Listeria monocytogenes. In words: Antivirulence activity against Listeria monocytogenes EGD-e infected in chicken embryo assessed as increase in embryo life span at 5 uM measured over 72 hrs. In kind it is functional.
Data set [10] deals with T1, Listeriolysin regulatory protein (Listeria monocytogenes serovar 1/2a (strain ATCC BAA-679 / EGD-e)). In words: Binding affinity to GFP expressing Listeria monocytogenes EGD-e PrfA expressed in Escherichia coli assessed as inhibition of bacterial uptake in human Caco2 cells at 1 uM incubated for 4 hrs by flow cytometric method relative to control.
Data set [11] relates to Listeria monocytogenes. As to the kind of experiment: Effect on PrfA expression in Listeria monocytogenes EGD-e at 1 uM by Western blot method. In kind it is functional.

Calls of active or inactive are those of the source. No cut-off for these calls is given here.

The inhibition is the share of the control response that was lost under treatment. For orientation: IC50 means the concentration needed to halve the response being measured. As for `O=C(O)[C@@H]1CSc2c(C3CC3)c(Cc3cccc4ccccc34)cc(=O)n21`, the inhibition result in data set [1], in data set [2], in data set [3] and in data set [5] was “Active” throughout. The IC50 in data set [4] was 4.5 µM.
As for `Cc1ccc(Cc2cc(=O)n3c(c2C2CC2)SC[C@H]3C(=O)O)c2ccccc12`, the fold change (FC) in data set [6] was 0.5.
Regarding `O=C(O)[C@@H]1CSc2c(C3CC3)c(Cc3cnc4ccccc4c3)cc(=O)n21`, the fold change (FC) in [6] was found to be 13.
With `CN(C)c1c(Cc2cccc3ccccc23)cc(=O)n2c1SCC2C(=O)O.Cl` (racemic), the fold change (FC) in data set [6] worked out at 0.7. For the same molecule, the inhibition entry in [1], in data set [2], in [3] and in data set [5] was “Active” throughout. For the same molecule, in data set [4], the IC50 came to 1.8 µM. Further, the outcome in data set [7] was Active. In addition, the Activity result in the data set with Listeria monocytogenes [8] is reported as “Non-Toxic”.
Regarding `COc1c(Cc2cccc3ccccc23)cc(=O)n2c1SCC2C(=O)O` (racemic), the fold change (FC) in data set [6] came out at 7. The inhibition result in [1], in data set [2], in data set [3] and in [5] was “inactive” throughout. Besides, the IC50 in data set [4] was 65.6 µM. The result in data set [7] was Active.
For the molecule `Cc1cccc(Cc2cc(=O)n3c(c2N(C)C)SCC3C(=O)O)c1C` (racemic), in [6], the fold change (FC) was 0.6. Also, the inhibition entry in data set [1], in data set [2], in [3] and in data set [5] was “Active” throughout. Moreover, in [4], the IC50 was 3 µM. Moreover, in data set [7], the outcome was Active. In the data set with Listeria monocytogenes [8], the Activity entry is recorded as “Non-Toxic”.
For the molecule `C=CCOc1c(Cc2cccc3ccccc23)cc(=O)n2c1SCC2C(=O)O` (racemic), the fold change (FC) in data set [6] was 4.
The same measure, in the same setting: the value for `CC(=O)Nc1c(Cc2cccc3ccccc23)cc(=O)n2c1SCC2C(=O)O` (racemic) was 5.
Still for that read-out and setting: the value for `CC(C)COc1c(Cc2cccc3ccccc23)cc(=O)n2c1SCC2C(=O)O` (racemic) was 4; that for `CC(C)Nc1c(Cc2cccc3ccccc23)cc(=O)n2c1SCC2C(=O)O` (racemic) was 3; that for `CCOc1c(Cc2cccc3ccccc23)cc(=O)n2c1SCC2C(=O)O` (racemic) was 5.
Same read-out and setting: the value for `CCc1cc(=O)n2c(c1N(C)C)SCC2C(=O)O` (racemic) was 10; that for `COC(=O)Nc1c(Cc2cccc3ccccc23)cc(=O)n2c1SCC2C(=O)O` (racemic) was 6; that for `CS(=O)(=O)Nc1c(Cc2cccc3ccccc23)cc(=O)n2c1SCC2C(=O)O` (racemic) was 5.
`CS(=O)(=O)c1c(Cc2cccc3ccccc23)cc(=O)n2c1SCC2C(=O)O` (racemic): the fold change (FC) in data set [6] was 7.
On the same count and under the same terms, under `Nc1c(Cc2cccc3ccccc23)cc(=O)n2c1SCC2C(=O)O` (racemic) stands 3.
The same measure, in the same setting: under `O=C(O)C1CSc2c(O)c(Cc3cccc4ccccc34)cc(=O)n21` (racemic) stands 5.
Consider `Cc1ccc(Cc2cc(=O)n3c(c2N(C)C)SCC3C(=O)O)c2ccccc12` (racemic; form 1) [listing 1 of 2 here], for which the Activity entry in the data set listed under Gallus gallus and in the data set on Listeria monocytogenes [8] was “Non-Toxic” each time. The IC50 in data set [4] turned out to be 1.5 µM. The ILS with Listeria monocytogenes [9] came out at 6 h.
On to `Cc1ccc(Cc2cc(=O)n3c(c2N(C)C)SCC3C(=O)O)c2ccccc12` (racemic; form 1) [listing 2 of 2 here], for which, in data set [6], the fold change (FC) was 0.7. Moreover, in data set [10], the inhibition was determined as 90%. The inhibition entry in data set [1] and in data set [5] was “Active” in each case. Further, the outcome in the data set with Listeria monocytogenes [11] was inactive. Moreover, the result in [7] was Active.
Turning to `Cc1ccc(Cc2cc(=O)n3c(c2N(C)C)SCC3C(=O)O)c2ccccc12.c1c[nH]cn1` (racemic; form 2), in the data set with Listeria monocytogenes [9], the ILS was 9 h.

The values are drawn from ChEMBL document CHEMBL4177765, “Structure-Based Design of Inhibitors Targeting PrfA, the Master Virulence Regulator of Listeria monocytogenes” (J Med Chem, 2018).
